Data from patent US5686486A, “4-hydroxy-benzopyran-2-ones and 4-hydroxy-cycloalkyl[b]pyran-2-ones useful to treat retroviral infections” (priority 1995, dated 1997).
pIC50: −log10 of the molar value. Structures can show the parent of a compound that is named as a salt. Where two headings read alike, the source gives them in different places.

Biological target: HIV-1 protease (Human immunodeficiency virus type 1 group M subtype B, UniProt P04585)
Assay: biochemical
Details: for inhibition at 0.123 µM: read-out: HIV-1 Protease % Inhib, dose 0.123 uM; for inhibition at 0.37 µM: read-out: HIV-1 Protease % Inhib, dose 0.370 uM; for inhibition at 1 µM: read-out: HIV-1 Protease % Inhib, dose 1.000 uM; for inhibition at 100 µM: read-out: HIV-1 Protease % Inhib, dose 100.000 uM; for pIC50: HIV-1 Protease IC50; for HIV-1 Protease % Inhib: dose 100.000 uM
Experimental: The HIV protease screening assay is based on fluorescently labeled substrate which can be resolved from nonlabeled cleavage product using special beads coated with streptavidin. The substrate is biotinylated at the amino terminal arginine and fluorescently labeled with fluorescein isothiocynate (FITC) at the carboxyl terminal lysine. This assay has been employed to detect novel, nonpeptidic inhibitors of HIV-1 protease. Substrate (20 μl of 0.2 μM), sample (10 μl of desired concentration), and enzyme (10 μl of 0.1 μM) are added to a 96 well pandex plate. The assay is run in 0.1M sodium acetate buffer at pH 5.5 in the presence of 1.0M sodium chloride and 0.05% NP-40 with incubated in the dark for one hour at room temperature. Strepavidin coated polystyrene beads {40 μl of 0.1% (w/v)} are added and the plate is incubated in the dark for an additional half hour. The labeled cleavage product is separated from the unreacted substrate via filtration and is read on the Idexx screen machine. The data are analyzed by appropriate computer algorithms to ascertain percent inhibition values.

[1] = dose 1.100 uM, read-out: HIV-1 Protease % Inhib
[2] = dose 3.300 uM, read-out: HIV-1 Protease % Inhib
[3] = dose 10.000 uM, read-out: HIV-1 Protease % Inhib
[4] = dose 30.000 uM, read-out: HIV-1 Protease % Inhib
[5] = read-out: HIV-1 Protease % Inhib, dose 1.100 uM
[6] = read-out: HIV-1 Protease % Inhib, dose 3.300 uM
[7] = read-out: HIV-1 Protease % Inhib, dose 10.000 uM
[8] = read-out: HIV-1 Protease % Inhib, dose 30.000 uM

With `CCCCCCCCCCCCS(=O)(=O)Nc1cccc(C(c2c(O)c3c(oc2=O)CCCCCC3)C2CC2)c1` (stereo not shown) [Example 344, N-[3-[Cyclopropyl(5,6,7,8,9,10-hexahydro-4-hydroxy-2-oxo-2H-cycloocta[b]pyran-3-yl)methyl]phenyl]-1-dodecanesulfonamide] the inhibition at 1.1 µM [1] was 11.8%, the inhibition at 3.3 µM [2] was 32.7% and the inhibition at 10 µM [3] was 63.2%. For the same molecule, the inhibition at 30 µM [4] was 81.8%.

Molecule `O=c1oc2c(c(O)c1C(c1cccc(NS(=O)(=O)c3ccc(Cl)c(Cl)c3Cl)c1)C1CC1)CCCCCC2` (stereo not shown) [Example 410, 2,3,4-Trichloro-N-[3-[cyclopropyl(5,6,7,8,9,10-hexahydro-4-hydroxy-2-oxo-2H-cycloocta[b]pyran-3-yl)methyl]phenyl]-benzenesulfonamide] has an inhibition at 0.123 µM of 49.5%, an inhibition at 0.37 µM of 79.7% and an inhibition at 1.1 µM [5] of 91.4%. For the same molecule, the inhibition at 3.3 µM [6] was 90.9%, the inhibition at 10 µM [7] was 96.8% and the inhibition at 30 µM [8] was 98.3%.

For `CCC(c1cccc(OCC(O)CO)c1)c1c(O)c2ccccc2oc1=O` (stereo not shown) [Example 68, 3-(1'-(3-((2,3-Dihydroxy)propyloxy)phenyl)propyl)-4-hydroxycoumarin], the inhibition at 1 µM was under 10%, the inhibition at 10 µM [7] was under 10% and the inhibition at 100 µM was 56%.

In the case of `CCC(c1ccccc1)c1c(O)c2ccc(O)cc2oc1=O` (stereo not shown) [Example 93, Coumarin, 4,7-dihydroxy-3-(1-phenylpropyl)-], the pIC50 was 4.69, the “HIV-1 Protease % Inhib” value was 91.7% and the inhibition at 1 µM was 23.2%. It also gave an inhibition at 10 µM [7] of 79.4% and an inhibition at 100 µM of 109%.

Molecule `O=c1oc2c(c(O)c1C(c1ccccc1)C1CC1)CCCCC2CCC1OCCO1` (stereo not shown) [Example 186, 3-(Cyclopropylphenylmethyl)-9-[2-(1,3-dioxolan-2-yl)ethyl]-6,7,8,9-tetrahydro-4-hydroxy-cyclohepta[b]pyran-2(5H)-one] has an inhibition at 1.1 µM [1] of 29.2%, an inhibition at 3.3 µM [2] of 64.6% and an inhibition at 10 µM [3] of 88.7%. For the same molecule, the inhibition at 30 µM [4] was 101%.

Work on `O=c1oc2ccccc2c(O)c1C(CCc1ccccc1)c1ccccc1` (stereo not shown) [Example 16, 4-Hydroxy-3-(1,3-diphenylpropyl)-coumarin] yielded an inhibition at 1 µM of under 10% and an inhibition at 10 µM [7] of 48.3%.

Molecule `O=c1oc2c(c(O)c1C(c1ccc(NS(=O)(=O)c3ccc(Cl)cc3)cc1)C1CC1)CCCCCC2` (stereo not shown) [Example 473, Benzenesulfonamide, 4-chloro-N-[4-[cyclopropyl(5,6,7,8,9,10-hexahydro-4-hydroxy-2-oxo-2H-cycloocta[b]pyran-3-yl)methyl]phenyl]-] has an inhibition at 3.3 µM [2] of 14.4%, an inhibition at 10 µM [3] of 73.6% and an inhibition at 30 µM [4] of 86.8%.

With `O=c1oc2ccccc2c(O)c1C(c1ccccc1)C1CC1` (stereo not shown) [Example 15, 3-(Cyclopropylphenylmethyl)-4-hydroxycoumarin] the pIC50 was 5.90, the inhibition at 1 µM was 43.8% and the inhibition at 10 µM [7] was 89.6%.

With `CCC(c1cccc(NC(=O)CN)c1)c1c(O)c2ccccc2oc1=O` (stereo not shown) [Example 46, Coumarin, 3-[1-[3-[[(aminomethyl)carbonyl]amino]phenyl]propyl]4-hydroxy-, trifluoroacetate (salt)] the pIC50 was 5.38, the “HIV-1 Protease % Inhib” value was 107% and the inhibition at 1 µM was 22.1%. It also gave an inhibition at 10 µM [7] of 96.3% and an inhibition at 100 µM of 116%.

`O=C(Nc1cccc(C(c2c(O)c3c(oc2=O)CCCCCC3)C2CC2)c1)c1cccc2ccccc12` (stereo not shown) [Example 212, 1-Naphthalenecarboxamide, N-[3-[cyclopropyl(5,6,7,8,9,10-hexahydro4-hydroxy-2-oxo-2H-cyclooct[b]pyran-3-yl)methyl]phenyl]-] was tested, and the inhibition at 3.3 µM [2] was 32.5%, the inhibition at 10 µM [3] was 59.5% and the inhibition at 30 µM [4] was 69.5%.

`COc1ccc2c(c1)C(c1c(O)c3ccccc3oc1=O)CCC2` (stereo not shown) [Example 77, 4-Hydroxy-3-(1-(7-methoxy)-1,2,3,4-tetrahydronaphthyl)-coumarin] gave an inhibition at 1 µM of under 10%, an inhibition at 10 µM [7] of 57.8% and an inhibition at 100 µM of 92.5%.

`CC(C)(C)OC(=O)NCc1ccc(C(c2c(O)c3c(oc2=O)CCCCCC3)C2CC2)o1` (stereo not drawn) [Example 480, 3-(α-Cyclopropyl(5-(N-carbo-t-butoxy)aminomethyl)furfur-2-yl)-4-hydroxy-5,6,7,8,9,10-hexahydrocycloocata[b]pyran-2-one] was tested, and the inhibition at 3.3 µM [2] was 19.2%, the inhibition at 10 µM [3] was 45.5% and the inhibition at 30 µM [4] was 78.2%.

For `CCC(c1ccccc1)c1c(O)c2cc(OC)ccc2oc1=O` (stereo not shown) [Example 89, Coumarin, 4-hydroxy-6-methoxy-3-(1-phenylpropyl)-], the inhibition at 1 µM was under 10%, the inhibition at 10 µM [7] was 10.3% and the inhibition at 100 µM was 52%.

For `COc1ccc2c(O)c(C(c3cccc(NC(=O)OCc4ccccc4)c3)C3CC3)c(=O)oc2c1` (stereo not shown) [Example 166, Carbamic acid, [3-[cyclopropyl(4-hydroxy-7-methoxy-2-oxo-2H-1-benzopyran-3-yl)methyl]phenyl]-, phenylmethyl ester], the inhibition at 0.41 µM (read-out: HIV-1 Protease % Inhib, dose 0.410 uM) was under 10%, the inhibition at 1.23 µM (read-out: HIV-1 Protease % Inhib, dose 1.230 uM) was 13.2% and the inhibition at 3.7 µM (read-out: HIV-1 Protease % Inhib, dose 3.700 uM) was 33.4%. For the same molecule, the inhibition at 11 µM (read-out: HIV-1 Protease % Inhib, dose 11.000 uM) was 58.9%, the inhibition at 33 µM (read-out: HIV-1 Protease % Inhib, dose 33.000 uM) was 89.1% and the inhibition at 100 µM was 100%.

`CC(c1ccccc1)c1c(O)c2ccccc2oc1=O` (stereo not drawn) [Example 6, 4-Hydroxy-3-(α-methylbenzyl)-coumarin] gave an inhibition at 10 µM [7] of 29.2%, an inhibition at 20 µM (read-out: HIV-1 Protease % Inhib, dose 20.000 uM) of 65.6% and an inhibition at 100 µM of 88.5%. For the same molecule, the inhibition at 200 µM (read-out: HIV-1 Protease % Inhib, dose 200.000 uM) was 75.2%.

Molecule `O=c1oc2c(c(O)c1C(c1cccc(NS(=O)(=O)c3ccccc3Cl)c1)C1CC1)CCCCCC2` (stereo not shown) [Example 293, 2-Chloro-N-[3-[cyclopropyl(5,6,7,8,9,10-hexahydro-4-hydroxy-2-oxo-2H-cycloocta[b]pyran-3-yl)methyl]phenyl]-benzenesulfonamide] has an inhibition at 0.123 µM of 54.9%, an inhibition at 0.37 µM of 82.4% and an inhibition at 1.1 µM [5] of 96.8%. It also gave an inhibition at 3.3 µM [6] of 107%, an inhibition at 10 µM [7] of 105% and an inhibition at 30 µM [8] of 109%.

`CCC(c1cccc(NC(=O)CCc2ccccc2)c1)c1c(O)c2ccccc2oc1=O` (stereo not shown) [Example 25, 4-Hydroxy-3-[1-[3-[(1-oxo-3-phenylpropyl)amino]phenyl]propyl]-coumarin] gave a pIC50 of 5.28, an inhibition at 1 µM of 11.4% and an inhibition at 10 µM [7] of 78.6%. The inhibition at 100 µM was 115%.

In the case of `Cc1cccc(S(=O)(=O)Nc2cccc(C(c3c(O)c4c(oc3=O)CCCCCC4)C3CC3)c2)c1` (stereo not shown) [Example 336, N-[3-[Cyclopropyl(5,6,7,8,9,10-hexahydro-4-hydroxy-2-oxo-2H-cycloocta[b]pyran-3-yl)methyl]phenyl]-3-methyl-benzenesulfonamide], the inhibition at 0.123 µM was 73.5%, the inhibition at 0.37 µM was 87.3% and the inhibition at 1.1 µM [5] was 93%. It also gave an inhibition at 3.3 µM [6] of 94.6%, an inhibition at 10 µM [7] of 103% and an inhibition at 30 µM [8] of 108%.

Work on `COCCOCCC1CCCCCc2c1oc(=O)c(C(c1ccccc1)C1CC1)c2O` (stereo not shown) [Example 172, 3-(Cyclopropylphenylmethyl)-5,6,7,8,9,10-hexahydro-4-hydroxy-10-[2-(2-methoxyethoxy)ethyl]-2H-cycloocta[b]pyran-2-one] yielded an inhibition at 1.1 µM [1] of 31.9%, an inhibition at 3.3 µM [2] of 73.5% and an inhibition at 10 µM [3] of 97.8%. For the same molecule, the inhibition at 30 µM [4] was 110%.

For `CCC(c1ccc(OC)cc1)c1c(O)c2ccccc2oc1=O` (stereo not shown) [Example 94, Coumarin, 4-hydroxy-3-[1-(4-methoxyphenyl)propyl]-], the “HIV-1 Protease % Inhib” value was 82.45%, the inhibition at 1 µM was under 10% and the inhibition at 10 µM [7] was 44.7%. It also gave an inhibition at 100 µM of 96.4%.

`CCC(c1cccc(NC(=O)c2ccccn2)c1)c1c(O)c2ccccc2oc1=O` (stereo not shown) [Example 45, Coumarin, 4-hydroxy-3-[1-[3-[[(2-pyridinyl)carbonyl]amino]phenyl]propyl]-] showed an inhibition at 1 µM of under 10%, an inhibition at 10 µM [7] of 28.5% and an inhibition at 100 µM of 90.9%.

`CCC(=O)c1ccc(C(CC)c2c(O)c3ccccc3oc2=O)cc1` (stereo not shown) [Example 106, Coumarin, 4-hydroxy-3-[1-(4-propionylphenyl)propyl]-] showed an inhibition at 1 µM of under 10%, an inhibition at 10 µM [7] of 11.7% and an inhibition at 100 µM of 71%.

`CC(Cc1c(O)c2ccccc2oc1=O)c1ccccc1` (stereo not shown) [Example 5, 4-Hydroxy-3-(2-phenylpropyl)coumarin] gave an inhibition at 1 µM of 15.4%, an inhibition at 10 µM [7] of 55.4% and an inhibition at 100 µM of 95%.

Work on `CCC(c1cccc(NC(=O)C(C)N)c1)c1c(O)c2ccccc2oc1=O` (stereo not shown) [Example 61, Propanamide, 2-amino-N-[3-[1-(4-hydroxy-2-oxo-2H-1-benzopyran-3-yl)propyl]phenyl]-, mono(trifluoroacetate) (salt)] yielded a pIC50 of 6.00, an inhibition at 1 µM of 77.8% and an inhibition at 10 µM [7] of 115%. For the same molecule, the inhibition at 100 µM was 119%.

Molecule `CCCCC(c1cccc(NS(=O)(=O)c2ccc(F)cc2)c1)c1c(O)c2c(oc1=O)CCCCCC2` (stereo not shown) [Example 422] has an inhibition at 0.123 µM of 100%, an inhibition at 0.37 µM of 95.4% and an inhibition at 1.1 µM [5] of 96.5%. For the same molecule, the inhibition at 3.3 µM [6] was 103%, the inhibition at 10 µM [7] was 97.6% and the inhibition at 30 µM [8] was 95.2%.
